Legend:
[1] = at 30° C.; cited from earlier work
human skin = assay: Mitigation of irritation by inorganic base (inventors' research); type: in vivo; details: as third salt (metal oxide)

[O]=[Zn] [zinc oxide]
water solubility [1]: 1.6 µg/mL | mitigating irritation (human skin): ineffective
